Measurements as given in patent publication US10131652B2, “Pyrimidinyloxy benzene derivatives as herbicides” (E. I. DU PONT DE NEMOURS AND COMPANY, priority 2014, dated 2018).

Legend:
Type in all cases: in vivo
[1] = tested on: Italian ryegrass (Lolium multiflorum); assay: Test B pre-/postemergence plant response
Method in brief: (§1)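 Scoring used a 0–100 scale (100 = complete control) by visual comparison with untreated plants after approximately 10 days in the greenhouse. Compounds, in surfactant-containing non-phytotoxic solvent, were sprayed onto soil at planting or onto 2–10 cm seedlings.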

kochia (Kochia scoparia) = assay: Test B pre-/postemergence plant response
Method in brief: as §1

[2] = tested on: ragweed (common ragweed, Ambrosia elatior); assay: Test B pre-/postemergence plant response
Method in brief: as §1

[3] = tested on: Italian ryegrass (Lolium multiflorum); assay: Test D pre-/postemergence plant response
Method in brief: (§2)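 Visual rating, 0–100 scale (0 = no effect, 100 = complete control), versus untreated controls 13 to 15 days after treatment in greenhouse. Preemergence: seeds in loam/sand soil. Postemergence: 2 to 18 cm plants, 1- to 4-leaf stage, peat-based medium. Compounds formulated in non-phytotoxic solvent plus surfactant.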

[4] = tested on: barnyardgrass (Echinochloa crus-galli); assay: Test D pre-/postemergence plant response
Method in brief: as §2

[5] = tested on: blackgrass (Alopecurus myosuroides); assay: Test D pre-/postemergence plant response
Method in brief: as §2

corn (Zea mays) = assay: Test D pre-/postemergence plant response
Method in brief: as §2

[6] = tested on: giant foxtail (Setaria faberii); assay: Test D pre-/postemergence plant response
Method in brief: as §2

[7] = tested on: lambsquarters (Chenopodium album); assay: Test D pre-/postemergence plant response
Method in brief: as §2

[8] = tested on: large (Lg) crabgrass (Digitaria sanguinalis); assay: Test D pre-/postemergence plant response
Method in brief: as §2

[9] = tested on: morningglory (Ipomoea coccinea); assay: Test D pre-/postemergence plant response
Method in brief: as §2

[10] = tested on: pigweed (Amaranthus retroflexus); assay: Test D pre-/postemergence plant response
Method in brief: as §2

soybean (Glycine max) = assay: Test D pre-/postemergence plant response
Method in brief: as §2

[11] = tested on: velvetleaf (Abutilon theophrasti); assay: Test D pre-/postemergence plant response
Method in brief: as §2

[12] = tested on: waterhemp (common waterhemp, Amaranthus rudis); assay: Test D pre-/postemergence plant response
Method in brief: as §2

[13] = 125 g ai/ha, postemergence, 0 to 100 scale, 0 no effect, 100 complete control
[14] = Postemergence, 500 g ai/ha, 0 to 100 scale (0 no effect, 100 complete control)
[15] = Preemergence, 125 g ai/ha, 0 to 100 scale where 0 is no effect and 100 is complete control
[16] = Preemergence, 500 g ai/ha, 0 to 100 scale where 0 is no effect and 100 is complete control
[17] = Postemergence, 16 g ai/ha, scale 0 to 100 (0 no effect, 100 complete control)
[18] = Postemergence, 31 g ai/ha, scale 0 to 100 (0 no effect, 100 complete control)
[19] = Postemergence, 62 g ai/ha, scale 0 to 100, 0 no effect, 100 complete control
[20] = Postemergence, 125 g ai/ha, scale 0 to 100, 0 no effect, 100 complete control
[21] = Preemergence, 16 g ai/ha, scale 0 to 100 (0 no effect, 100 complete control)
[22] = Preemergence, 31 g ai/ha, scale 0 to 100 (0 no effect, 100 complete control)
[23] = Preemergence, 62 g ai/ha, scale 0 to 100 (0 no effect, 100 complete control)

FC(F)(F)c1cc(-c2ccccc2Oc2ncc(Cl)cn2)ncn1 [Compound 54]
90: Plant response rating, Crabgrass, Large [8, 23]
75: Plant response rating, Crabgrass, Large [8, 22] | Morningglory plant response rating [9, 18] | Plant response rating, Morningglory [9, 19] | Plant response rating, Waterhemp [12, 20]
45: Waterhemp plant response rating [12, 17]
80: Plant response rating, Kochia (kochia (Kochia scoparia); [15]) | Pigweed plant response rating [10, 18] | Plant response rating, Pigweed [10, 19] | Plant response rating, Soybean (soybean (Glycine max); [20]) | Plant response rating, Waterhemp [12, 19]
30: Plant response rating, Ryegrass, Italian [1, 13] | Plant response rating, Ryegrass, Italian [1, 15] | Plant response rating (scale 0 to 100), Ryegrass, Italian ([3]; Preemergence, 125 g ai/ha) | Foxtail, Giant plant response rating [6, 18]
95: Plant response rating (scale 0 to 100), Barnyardgrass ([4]; Preemergence, 125 g ai/ha) | Plant response rating (scale 0 to 100), Foxtail, Giant ([6]; Preemergence, 125 g ai/ha) | Plant response rating, Foxtail, Giant [6, 23]
15: Plant response rating (scale 0 to 100), Morningglory ([9]; Preemergence, 125 g ai/ha) | Soybean plant response rating (soybean (Glycine max); [17]) | Plant response rating, Velvetleaf [11, 21]
10: Plant response rating, Barnyardgrass [4, 20] | Plant response rating (scale 0 to 100), Barnyardgrass ([4]; Preemergence, 62 g ai/ha) | Plant response rating, Foxtail, Giant [6, 19] | Plant response rating, Foxtail, Giant [6, 22] | Plant response rating, Crabgrass, Large [8, 21] | Soybean plant response rating (soybean (Glycine max); [18]) | Plant response rating, Soybean (soybean (Glycine max); [22])
85: Plant response rating (scale 0 to 100), Lambsquarters ([7]; Preemergence, 125 g ai/ha) | Plant response rating, Lambsquarters [7, 23] | Plant response rating, Morningglory [9, 20] | Plant response rating, Velvetleaf [11, 23] | Plant response rating, Waterhemp [12, 22]
100: Plant response rating, Kochia (kochia (Kochia scoparia); [13]) | Plant response rating, Kochia (kochia (Kochia scoparia); [14]) | Plant response rating, Kochia (kochia (Kochia scoparia); [16]) | Plant response rating (scale 0 to 100), Crabgrass, Large ([8]; Preemergence, 125 g ai/ha) | Plant response rating (scale 0 to 100), Pigweed ([10]; Preemergence, 125 g ai/ha) | Plant response rating, Pigweed [10, 22] | Plant response rating, Pigweed [10, 23] | Plant response rating (scale 0 to 100), Velvetleaf ([11]; Preemergence, 125 g ai/ha) | Plant response rating (scale 0 to 100), Waterhemp ([12]; Preemergence, 125 g ai/ha) | Plant response rating, Waterhemp [12, 23]
70: Plant response rating, Ragweed [2, 16] | Plant response rating (scale 0 to 100), Blackgrass ([5]; Preemergence, 125 g ai/ha) | Plant response rating, Lambsquarters [7, 20] | Plant response rating, Velvetleaf [11, 22]
25: Plant response rating, Waterhemp [12, 21]
40: Plant response rating, Blackgrass [5, 23] | Plant response rating, Velvetleaf [11, 19] | Plant response rating, Velvetleaf [11, 20]
50: Plant response rating, Ragweed [2, 13] | Plant response rating, Foxtail, Giant [6, 20] | Plant response rating, Soybean (soybean (Glycine max); [19])
20: Plant response rating (scale 0 to 100), Soybean (soybean (Glycine max); Preemergence, 125 g ai/ha) | Plant response rating, Soybean (soybean (Glycine max); [23])
0: Ryegrass, Italian plant response rating [3, 17] | Ryegrass, Italian plant response rating [3, 18] | Plant response rating, Ryegrass, Italian [3, 19] | Plant response rating, Ryegrass, Italian [3, 20] | Plant response rating, Ryegrass, Italian [3, 21] | Barnyardgrass plant response rating [4, 17] | Plant response rating, Barnyardgrass [4, 21] | Blackgrass plant response rating [5, 17] | Corn plant response rating (corn (Zea mays); [17]) | Corn plant response rating (corn (Zea mays); [18]) | Plant response rating (scale 0 to 100), Corn (corn (Zea mays); Preemergence, 125 g ai/ha) | Plant response rating, Corn (corn (Zea mays); [21]) | Plant response rating, Corn (corn (Zea mays); [22]) | Plant response rating, Corn (corn (Zea mays); [23]) | Foxtail, Giant plant response rating [6, 17] | Plant response rating, Foxtail, Giant [6, 21] | Lambsquarters plant response rating [7, 17] | Plant response rating, Morningglory [9, 21] | Plant response rating, Morningglory [9, 22] | Plant response rating, Soybean (soybean (Glycine max); [21]) | Velvetleaf plant response rating [11, 17]
5: Plant response rating, Ryegrass, Italian [3, 22] | Plant response rating, Ryegrass, Italian [3, 23] | Barnyardgrass plant response rating [4, 18] | Plant response rating, Barnyardgrass [4, 19] | Plant response rating, Barnyardgrass [4, 22] | Blackgrass plant response rating [5, 18] | Plant response rating, Blackgrass [5, 19] | Plant response rating, Blackgrass [5, 20] | Plant response rating, Blackgrass [5, 21] | Plant response rating, Blackgrass [5, 22] | Plant response rating, Corn (corn (Zea mays); [19]) | Plant response rating, Corn (corn (Zea mays); [20]) | Lambsquarters plant response rating [7, 18] | Plant response rating, Lambsquarters [7, 19] | Plant response rating, Lambsquarters [7, 21] | Crabgrass, Large plant response rating [8, 17] | Crabgrass, Large plant response rating [8, 18] | Plant response rating, Crabgrass, Large [8, 19] | Plant response rating, Crabgrass, Large [8, 20] | Morningglory plant response rating [9, 17] | Plant response rating, Morningglory [9, 23] | Plant response rating, Pigweed [10, 21] | Velvetleaf plant response rating [11, 18]
60: Plant response rating, Ryegrass, Italian [1, 14] | Plant response rating, Ryegrass, Italian [1, 16] | Plant response rating, Ragweed [2, 14] | Plant response rating, Ragweed [2, 15] | Plant response rating, Lambsquarters [7, 22] | Pigweed plant response rating [10, 17] | Plant response rating, Pigweed [10, 20] | Waterhemp plant response rating [12, 18]
